{"source": "paper PMC5962072", "about": "“Structural insights on the efficient catalysis of hydroperoxide reduction by Ohr: Crystallographic and molecular dynamics approaches” (PLoS ONE, 2018)", "target": "T1, XfOhr (Ohr from Xylella fastidiosa) (Xylella fastidiosa, UniProt Q9PCF4)", "T1 construct": "gene XF_1827", "T1 sequence (Q9PCF4 1-143)": "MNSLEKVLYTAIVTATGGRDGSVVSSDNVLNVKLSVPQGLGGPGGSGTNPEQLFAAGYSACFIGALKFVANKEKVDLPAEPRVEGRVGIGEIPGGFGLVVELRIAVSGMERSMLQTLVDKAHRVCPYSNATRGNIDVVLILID", "data": [{"smiles": "NC(=O)CCCC[C@@H](S)CCS", "note": "[dihydrolipoamide]", "values": [{"measurement": "lipoamide-lipoamide dehydrogenase peroxidase-coupled assay, NADH decay at 340 nm", "result": "XfOhr R19A and XfOhr E51A presented only residual dihydrolipoamide-dependent peroxidase activity"}]}]}
